Experimental data taken from ChEMBL document CHEMBL1151556, “Design and synthesis of new hypocholesterolemic organosilanes with antioxidant properties” (Bioorg Med Chem Lett, 1996).

How the values were obtained:
[1] = biological target: Squalene monooxygenase (Sus scrofa); assay: Compound was evaluated for the inhibition of pig liver microsomal squalene epoxidase.
Rattus norvegicus = assay: Compound was evaluated in vivo for inhibition of cholesterol synthesis in rats upon oral administration.; assay type: functional
Homo sapiens [2] = organism: Homo sapiens; assay: Compound was evaluated for the inhibition of human LDL oxidation mediated by copper(II).; assay type: functional
HUVEC = assay: (§1) Compound was evaluated for the inhibition of HUVEC-induced LDL oxidation; assay type: functional, cell-based; conditions: Homo sapiens
HepG2 = assay: In vitro inhibition of cholesterol synthesis in HepG2 cells.; assay type: functional, cell-based; conditions: Homo sapiens
Homo sapiens [3] = organism: Homo sapiens; assay: as §1; assay type: functional, organism-based

IC50 (Homo sapiens [2]) [µM] | IC50 (Homo sapiens [2]; Homo sapiens) [µM] | Molecule | further results
> 50 |  | CCN(C/C=C/C#CC(C)(C)C)Cc1cccc(OC[Si](C)(C)c2ccccc2C)c1 | IC50 [1]: 0.03 µM; ED50 (Rattus norvegicus): 3.2 mg/kg; IC50 (HUVEC): 50 µM; IC50 (HepG2): 0.12 µM
 | 100 | CC(C)(CNc1ccccc1)c1ccccc1 | 
 | 15 | CCN(C[Si](C)(C)c1ccccc1)c1ccccc1 | 
 | 3 | COc1ccc(NC[Si](C)(C)c2ccccc2)cc1 | 
 | 100 | CCN(C[Si](C)(C)c1ccccc1)c1ccc(C(F)(F)F)cc1 | 
 | 20 | CCN(C[Si](C)(C)c1ccc(C(F)(F)F)cc1)c1ccccc1 | 
 | 7.8 | C[Si](C)(CNc1ccccc1)c1ccccc1 | 
20 |  | CCN(C/C=C/C#CC(C)(C)C)Cc1cccc(NC[Si](C)(C)c2ccccc2C)c1 | ED50 (Rattus norvegicus): 10 mg/kg; IC50 (HUVEC): 7 µM; IC50 (HepG2): 0.2 µM
 | 5.3 | CC(C)(Sc1cc(C(C)(C)C)c(O)c(C(C)(C)C)c1)Sc1cc(C(C)(C)C)c(O)c(C(C)(C)C)c1 [PROBUCOL] | 
10 |  | VITAMIN E | IC50 (Homo sapiens [3]): 13.6 µM
